In US5096911A, “Alteration of rate and character of hair growth” (priority 1990, dated 1992):

Assays:
Hamster flank organ hair = assay: Inhibition of hair growth: hamster flank organ hair mass after topical application; type: in vivo, male intact Golden Syrian hamsters; conditions: three weeks; for Percent Inhibition (of hair mass vs vehicle-treated organ) / Hamster Flank Organ Hair Mass, Treated (mean): once a day, five days a week
Source text: Acivicin (Sigma Chemical Co., St. Louis) was mixed with separate portions of the foregoing vehicle to provide specimens containing 1,2, and 6% by weight respectively of the inhibitor and the pH was adjusted to pH 7.5 with sodium hydroxide.
Four groups (eight animals in each group) of male intact Golden Syrian hamsters were provided. These animals were considered acceptable models for human beard hair growth in that they display oval shaped flank organs, one on each side, each about 8 mm. in major diameter, which grow thick black and coarse hair similar to human beard hair. These organs produce hair in response to androgens in the hamster. The flank organs of each hamster were depilated by applying a thioglycolate- based chemical depilatory (Surgex), and to one organ of each animal was applied 10-25 mg. of vehicle alone once a day, while to the other organ of each animal was applied an equal amount of vehicle containing inhibitor. After three weeks of such applications (five days a week), the flank organs were shaved and the amount of recovered hair (hair mass) from each was weighed. The extent of reduction in hair growth by the inhibitor was expressed as the percent decrease in hair mass on the organ treated with inhibitor as compared to the organ treated with vehicle alone. As a control, one group of eight animals had both flank organs of each animal treated with vehicle alone.
A composition was prepared containing 5% by weight of bromsulphalein disodium in the vehicle described in Example I above, and applied to hamster flank organs under the same conditions as described in Example 1.
The anthglutin prepared as described above was dissolved in specimens of the vehicle described in Example 1 and applied to the flank organs of groups of hamsters in the same manner as described in Example 1, a group of eight animals being used for each different composition.

follicle enzyme = assay: Inhibition of follicle enzyme activity after topical treatment over three weeks; type: in vivo, Golden Syrian hamsters; conditions: 6% solution, three week period
[1] = tested on: hair follicle gamma-glutamyl transpeptidase; assay: Inhibition of hair follicle gamma-glutamyl transpeptidase activity; type: biochemical
[2] = tested on: gamma-glutamyl transpeptidase; conditions: Japanese Patent No. 53-127,432; Minato, Archives Biochem. Biophy., Vol. 192, 235-240 (1979); cited from earlier work

N[C@H](C(=O)O)[C@@H]1CC(Cl)=NO1 [Acivicin, (alpha S,5S)-amino-3-chloro-4,5-dihydro-isoxazole acetic acid]
Percent Inhibition (of hair mass vs vehicle-treated organ) (Hamster flank organ hair; acivicin 1.0%, topical): 18.2%
Hamster Flank Organ Hair Mass, Treated (mean) (Hamster flank organ hair; acivicin 1.0%, topical, contralateral vehicle organ 1.04 mg): 0.85 mg
Percent Inhibition (of hair mass vs vehicle-treated organ) (Hamster flank organ hair; acivicin 2.0%, topical): 57.9%
Hamster Flank Organ Hair Mass, Treated (mean) (Hamster flank organ hair; acivicin 2.0%, topical, contralateral vehicle organ 1.33 mg): 0.56 mg
Percent Inhibition (of hair mass vs vehicle-treated organ) (Hamster flank organ hair; acivicin 6.0%, topical): 81.0%
Hamster Flank Organ Hair Mass, Treated (mean) (Hamster flank organ hair; acivicin 6.0%, topical, contralateral vehicle organ 0.79 mg): 0.15 mg
character of hair on the treated organ vs untreated organ (Hamster flank organ hair; topical acivicin): more vellus in nature
inhibition of follicle enzyme activity (follicle enzyme): about 87%

N[C@@H](CCC(=O)NNc1ccccc1C(=O)O)C(=O)O [Anthglutin, 1-gamma-L-glutamyl-2 (2-carboxyphenyl)-hydrazine]
inhibition of the activity / inhibitory affinity for hair follicle gamma-glutamyl transpeptidase [1]: strong inhibitory affinity
Percent Inhibition (of hair mass vs vehicle-treated organ) (Hamster flank organ hair; anthglutin 0.5%, topical): 10.7%
Hamster Flank Organ Hair Mass, Treated (mean) (Hamster flank organ hair; anthglutin 0.5%, topical, contralateral vehicle organ 2.03 mg): 1.81 mg
Percent Inhibition (of hair mass vs vehicle-treated organ) (Hamster flank organ hair; anthglutin 1.0%, topical): 16.7%
Hamster Flank Organ Hair Mass, Treated (mean) (Hamster flank organ hair; anthglutin 1.0%, topical, contralateral vehicle organ 1.92 mg): 1.60 mg
Percent Inhibition (of hair mass vs vehicle-treated organ) (Hamster flank organ hair; anthglutin 2.0%, topical): 38.6%
Hamster Flank Organ Hair Mass, Treated (mean) (Hamster flank organ hair; anthglutin 2.0%, topical, contralateral vehicle organ 2.57 mg): 1.58 mg
Percent Inhibition (of hair mass vs vehicle-treated organ) (Hamster flank organ hair; anthglutin 6.0%, topical): 67.2%
Hamster Flank Organ Hair Mass, Treated (mean) (Hamster flank organ hair; anthglutin 6.0%, topical, contralateral vehicle organ 2.26 mg): 0.74 mg
inhibition of gamma-glutamyl transpeptidase [2]: specific inhibitor of gamma-glutamyl transpeptidase

O=C1OC(c2ccc(O)c(S(=O)(=O)O)c2)(c2ccc(O)c(S(=O)(=O)O)c2)c2c(Br)c(Br)c(Br)c(Br)c21 [bromsulphalein disodium, 5,5'-(4,5,6,7-tetrabromo-3-oxo-1(3H)-isobenzofuranylidene) bis[2-hydroxybenzenesulfonic acid]]
inhibition of hair mass (Hamster flank organ hair; 5% by weight bromsulphalein disodium, topical): 32%
